Experimental data published in PubChem BioAssay (NCI).
Several values for one entry are separate records, joined by “and”; a condition that tells them apart may be missing. Identical values can stand only once.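 Compound exposure: 48 hours, 5 concentrations, 96-well plates. Abbreviation: GI50, concentration required for 50% inhibition of growth. At the TGI there is no net growth.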

Assays:
Assay in all cases: DTP human tumour cell line panel, 48 h
ACHN renal = system: ACHN renal
EKVX NSCLC = system: EKVX NSCLC
K-562 leukemia = system: K-562 leukemia
MOLT-4 leukemia = system: MOLT-4 leukemia
NCI-H226 lung = system: NCI-H226 lung
OVCAR-4 ovarian = system: OVCAR-4 ovarian
SK-MEL-2 melanoma = system: SK-MEL-2 melanoma
DU-145 prostate = system: DU-145 prostate
MCF7 breast = system: MCF7 breast
T-47D breast = system: T-47D breast

Structure (SMILES)	TGI (ACHN renal)	TGI (EKVX NSCLC)	TGI (K-562 leukemia) [µM]	TGI (MOLT-4 leukemia) [µM]	TGI (NCI-H226 lung)	TGI (OVCAR-4 ovarian) [µM]	TGI (SK-MEL-2 melanoma)	GI50 (ACHN renal) [µM]	TGI (DU-145 prostate) [µM]	GI50 (K-562 leukemia) [µM]	GI50 (MCF7 breast) [µM]	TGI (MCF7 breast)	GI50 (OVCAR-4 ovarian) [µM]	GI50 (DU-145 prostate) [µM]	GI50 (EKVX NSCLC) [µM]	GI50 (NCI-H226 lung) [µM]	GI50 (SK-MEL-2 melanoma) [µM]	GI50 (T-47D breast) [µM]	TGI (T-47D breast) [µM]	GI50 (MOLT-4 leukemia) [µM]
CC1=C(C(=O)Nc2ccc(C)cc2)C(c2cccc([N+](=O)[O-])c2)C(C(=O)Nc2ccc(C)cc2)=C(C)N1	80.8 µM	86.1 µM	63.5	38.5	> 100 µM	> 100	54.8 µM	–	–	–	–	–	–	–	–	–	–	–	–	–
CC[As](CC)SCC1OC(OC(C)=O)C(OC(C)=O)C(OC(C)=O)C1OC(C)=O (configuration not stated)	31.5 µM	37.2 µM	14	48.2	28.9 µM	37	26.2 µM	–	–	–	–	–	–	–	–	–	–	–	–	–
CC1=CC[C@@H](C(C)(C)O)C[C@@H]1O	> 5000 µM	> 5000 µM	> 5000	> 5000	> 5000 µM	> 5000	> 5000 µM	–	–	–	–	–	–	–	–	–	–	–	–	–
CN(C)c1ccc(/C=c2/c3cc(O)ccc3n3c2cc(-c2ccccc2)[n+]3C)cc1	> 100 µM	–	–	–	> 100 µM	> 100	2.55 µM	4.78	6.07	1.01	1.18	> 100 µM	2.83	–	–	–	–	–	–	–
Cc1cc(C)nc(NS(=O)(=O)c2ccc(NC(=O)COC(=O)c3cccc4c(=O)c5ccccc5[nH]c34)cc2)n1	> 100 µM	> 100 µM	98.8	84.8	> 100 µM	> 100	–	–	–	–	–	–	–	–	–	–	–	–	–	–
CN(C)CCCCNc1ccc(NCCCCN(C)C)c2c1C(=O)c1c(O)ccc(O)c1C2=O	2.96 µM	3.82 µM	–	–	28.1 µM	2.76	32.5 µM	1.61	2.55	–	1.59	2.99 µM	1.42	1.29	1.81	14.9	18	18.5	33.2	–
COc1ccc([C@@H]2OC(=O)C3C2C(=O)O[C@H]3c2ccc(OC)cc2)cc1 (some centres not stated)	> 100 µM	> 100 µM	> 100	> 100	–	> 100	> 100 µM	–	–	–	–	–	–	–	–	–	–	–	–	–
COc1cc(CC(=O)O)c([N+](=O)[O-])cc1OC	> 100 µM	> 100 µM	> 100	> 100	> 100 µM	> 100	> 100 µM	–	–	–	–	–	–	–	–	–	–	–	–	–
CC/C(=C(/c1ccc(OCCN(C)C)cc1)c1ccc(OC(=O)CCCCCCCCC(=O)c2c(C)[nH]c(/C=C3\N=C(c4ccc[nH]4)C=C3OC)c2C)cc1)c1ccccc1	> 100 µM	–	> 100	> 100	> 100 µM	–	> 100 µM	7.82	> 100	4.54	0.161	10.9 µM	–	8.06	–	> 100	30.7	3.56	> 100	5.13
COC(=O)C1=CC(=O)[C@@H]2CCCC[C@H]12	> 100 µM	–	> 100	> 100	> 100 µM	> 100	> 100 µM	–	–	–	–	–	–	–	–	–	–	–	–	–
CC[C@@]1(O)C(=O)OCc2c1cc1n(c2=O)Cc2c-1nc1cc(F)c(C)c3c1c2[C@@H](NC(=O)CO)CC3	0.131 µM	> 100 µM	> 100	> 100	0.117 µM	> 100	2.63 µM	< 0.01	> 100	0.0193	–	–	0.206	< 0.01	0.311	< 0.0128	0.318	< 0.01	–	< 0.01
[CH3][Hg]/[N]=C(/N)NC#N	26.4 µM	–	> 100	> 100	32.5 µM	9.31	26.7 µM	13.5	–	1.69	–	–	3.23	–	–	15.6	3.65	–	–	3.73
Cc1cc(C)c(/C=N/NS(=O)(=O)c2ccccc2)c(C)c1	> 100 µM	> 100 µM	> 100	> 100	> 100 µM	> 100	> 100 µM	–	–	–	–	–	–	–	–	–	–	–	–	–
COc1cc(C2CC(c3cccc(Nc4ccnc5cc(Cl)ccc45)c3)=NN2c2ccccc2)cc(OC)c1OC (configuration not stated)	> 100 µM	–	> 100	> 100	> 100 µM	–	75.6 µM	3.52	> 100	3.75	2.74	> 100 µM	–	> 100	–	41.2	8.78	1.44	> 100	7.98
COC(=O)c1c2c(c(C)[n+]([O-])c1C)C(=O)C(NCc1ccc(O)cc1)=CC2=O	3.22 µM	3.34 µM	7.39	–	4.36 µM	2.23	3.72 µM	1.7	3.19	1.63	0.416	2 µM	1.03	1.75	1.73	2.06	1.79	–	–	–
CCCCCCCCCC[C@H](O)[C@H]1CC[C@@H]([C@@H](O)CC[C@H](O)[C@@H]2CCC(CCCCCCC[C@@H](O)CC3=C[C@H](C)OC3=O)O2)O1 (some centres not stated)	4.47 µM and 15.7 µM	6.86 µM and 22.4 µM	19.2	–	6.43 µM and 36 µM	19.6	2.94 µM and 24.6 µM	2.15	–	–	3	9.6 µM and 22.9 µM	–	–	5.17	8.54	8.82	1.87	17.6	–
Fc1ccc(N=C2C=CC(=Nc3ccc(F)cc3)c3ccccc32)cc1	> 100 µM	> 100 µM	> 100	> 100	> 100 µM	–	> 100 µM	–	–	–	–	–	–	–	–	–	–	–	–	–
COC(=O)Nc1nc2ccc(C(=O)c3ccc(F)cc3)cc2[nH]1	> 100 µM	> 100 µM	–	–	3.23 µM	> 100	> 49.8 µM	1.05	0.858	–	0.0867	> 100 µM	1.21	0.298	0.438	0.464	4.14	0.338	> 100	–
